The source made the active and inactive calls.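 Rule for the calls: active = IC50 no more than a set number of log units above the top dose tested; inconclusive = flat fit with 30 to 70% inhibition, or a poor fit; inactive = IC50 beyond that set limit.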
Target: Serine/threonine-protein kinase 33 (Homo sapiens) (UniProt Q9BYT3)
Assay: inhibition of STK33 phosphorylation of MBP – biochemical, luminescence, cell-free, retest, dose response (AID 2821)
Conditions: purified STK33, MBP substrate, ADP-Glo luminescence

Chain of Serine/threonine-protein kinase 33 (Homo sapiens) (Q9BYT3 whole entry, looked up): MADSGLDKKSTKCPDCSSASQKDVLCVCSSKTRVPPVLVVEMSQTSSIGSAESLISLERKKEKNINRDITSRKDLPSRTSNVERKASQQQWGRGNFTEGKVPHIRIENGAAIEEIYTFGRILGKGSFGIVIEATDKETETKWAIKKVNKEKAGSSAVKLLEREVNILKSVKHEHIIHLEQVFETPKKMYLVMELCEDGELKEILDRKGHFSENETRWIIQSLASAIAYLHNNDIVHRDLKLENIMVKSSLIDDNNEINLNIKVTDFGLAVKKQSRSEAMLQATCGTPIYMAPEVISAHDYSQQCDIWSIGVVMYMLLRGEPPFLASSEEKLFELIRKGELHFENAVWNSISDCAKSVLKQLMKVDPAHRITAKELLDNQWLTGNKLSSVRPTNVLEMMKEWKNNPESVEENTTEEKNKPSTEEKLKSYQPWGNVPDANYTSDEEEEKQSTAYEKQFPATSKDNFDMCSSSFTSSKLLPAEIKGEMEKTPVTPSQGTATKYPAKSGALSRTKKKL

SMILES	IC50
COc1cc(C2c3sc(=O)[nH]c3SC3C(=O)N(c4ccc(C)cc4)C(=O)C32)ccc1O (stereo not given)	> 12 µM (inactive)
COc1cc(N=Cc2c(O)[nH]c3ccccc23)cc(OC)c1OC	4.93 µM
Oc1ccc(/C=N/Nc2ccnc3cc(Cl)ccc23)cc1O	3.05 µM
Oc1ccc(/C=C/c2ccnc3ccccc23)cc1	11.5 µM
CCn1c2ccc(/C(C)=N\O)cc2c2cc(/C(C)=N\O)ccc21	> 12 µM (inactive)
COc1cc(/C=C/C(=O)/C=C(O)/C=C/c2ccc(O)c(OC)c2)ccc1O	0.71 µM
CCCn1c2ccc(/C(C)=N\O)cc2c2cc(/C(C)=N/O)ccc21	2.48 µM

The next lines start with the values.

IC50	SMILES
6.22 µM	O=c1c(/C=N/O)c(Nc2ccccc2)nc2ccccn12
5.22 µM	COc1ccc(N=Cc2c(O)[nH]c3ccccc23)cc1OC
1.75 µM	COc1cc(/C=C/C(O)=C/C(=O)/C=C/c2ccc(O)cc2)ccc1O
4.91 µM	NS(=O)(=O)c1ccc2c(c1)C(=NO)c1cc(S(N)(=O)=O)ccc1-2
8.49 µM	N#C/C(=C(/O)c1ccco1)c1nc2ccccc2[nH]1
11.8 µM	COC(=O)c1cccc2c1-c1ccccc1/C2=N/O
11.3 µM	Oc1[nH]c2ccccc2c1C=Nc1ccc2c(c1)OCO2
10.3 µM	O=C1C(c2ccncc2)=C(O)c2ccccc21

Reference: PubChem BioAssay AID2821 (Broad Institute, 2010)
